In US8455466B2, “Vitamin d analogues, compositions comprising said analogues and their use” (Leo Pharma A/S, priority 2002, dated 2013):

Columns and labels:
[1] = tested on: bovine parathyroidea cells; assay: In vitro PTH secretion in bovine parathyroidea cells; type: cell-based; conditions: cells treated with vitamin D analogues for 60 hours at 37° C.
Method: The calcemic activities of the compounds of the present invention were determined in rats in vivo, as previously described (Binderup, L., Bramm, E., Biochem. Pharmacol. 37, 889-895 (1988)). The PTH suppressive effect of the compounds of the present invention was tested in vitro on bovine parathyroidea cells: Fresh bovine parathyroid glands were collected from adult cattle within 20 min of slaughter. From minced parathyroid tissue dispersed parathyroid cells were prepared as previously described (E. M. Brown, S. Hurwitz and G. D Aurbach; Preparation of viable isolated bovine parathyroid cells; Endocrinology, 1976, vol 99, no 6, 1582-1588). Then, the cells were treated with vitamin D analogues for 60 hours at 37° C. and the PTH secretion was determined.

[2] = tested on: rats; assay: In vivo calcemic activity in rats (Binderup et al.); parameters: species or system rat; conditions: Calcitriol = 100%
[3] = tested on: secretion of PTH; conditions: patients; 1α(OH)D3 versus 1,25(OH)2 D3 administered; cited from earlier work

Compound | In vitro PTH secretion relative to untreated bovine parathyroidea cells (untreated cells as control = 100%) [1] [%] | In vivo calcemic activity relative to Calcitriol (1,25(OH)2D3) [2] | suppression of the secretion of PTH, compared with 1,25(OH)2 D3 dosing [3]
1(S),3(R)-Dihydroxy-9,10-seco-26,27-methano-20(S)-cholesta-5(Z),7(E),10(19),22(E),24-penta-ene [Compound 7] | 65 | <0.5% ^ | –
1(S),3(R)-Dihydroxy-9,10-seco-26,27-methano-cholesta-5(Z),7(E),10(19),22(E),24-penta-ene [Compound 6] | 56 | 1% | –
C=C1/C(=C\C=C2/CCC[C@]3(C)[C@@H]([C@H](C)CCCC(C)C)CC[C@@H]23)C[C@@H](O)C[C@@H]1O [1α(OH)D3] | – | – | no significant difference
C=C1/C(=C\C=C2/CCC[C@]3(C)[C@@H]([C@H](C)CCCC(C)(C)O)CC[C@@H]23)C[C@@H](O)C[C@@H]1O [Calcitriol, 1,25(OH)2D3, reference compound] | 60 | 100% | –
C=C1C(=CC=C2CCCC3(C)C2CCC3C(C)C=CC=C(C)C)CC(O)CC1O [Compound 1, 1(S),3(R)-Dihydroxy-9,10-secocholesta-5(Z),7(E),10(19),22(E),24-penta-ene] | 57 | <10% ^ | –
C=C1C(=CC=C2CCCC3(C)C2CCC3C(C)C=CC=C(C)C)CC(O)CC1O [Compound 3, 1(S),3(R)-Dihydroxy-9,10-seco-20(S)-cholesta-5(Z),7(E),10(19), 22(E),24-penta-ene] | 61 | 1% | –
C=C1C(=CC=C2CCCC3(C)C2CCC3C(C)C=CC=C(C(F)(F)F)C(F)(F)F)CC(O)CC1O [Compound 25, 1(S),3(R)-Dihydroxy-26,26,26,27,27,27-hexafluoro-9,10-secocholesta-5(Z),7(E),10(19),22(E),24-penta-ene] | 74 | 8% | –
C=C1C(=CC=C2CCCC3(C)C2CCC3C(C)C=CC=C(Br)Br)CC(O)CC1O [Compound 27, 1(S),3(R)-Dihydroxy-20(R)-(4,4-dibromo-1,3-butadien-1-yl)-9,10-seco-pregna-5(Z),7(E),10(19)-triene] | 65 | <0.5% ^ | –
C=C1/C(=C\C=C2/CCC[C@]3(C)[C@@H]([C@H](C)/C=C/C=C(CC)CC)CC[C@@H]23)C[C@@H](O)C[C@@H]1O [Compound 28, 1(S),3(R)-Dihydroxy-26,27-dimethyl-9,10-secocholesta-5(Z),7(E),10(19),22(E),24-penta-ene] | 62 | 1% | –
